Values of other authors in US5688524A, “Transdermal formulations for administering prazosin” (Cygnus, Inc., priority 1993, dated 1997).

Columns and labels:
[1] = oral; incomplete absorption, GI degradation, first pass liver metabolism
[2] = test system: benign prostatic hypertrophy (BPH); conditions: in vivo

bioavailability [1]: incomplete bioavailability
Compound: COc1cc2nc(N3CCN(C(=O)c4ccco4)CC3)nc(N)c2cc1OC [prazosin]
effect in treating benign prostatic hypertrophy (BPH) [2]: effective in treating benign prostatic hypertrophy (BPH)
